In patent publication US9511134B2, “Inducing immune responses to influenza virus using polypeptide and nucleic acid compositions” (priority 2006, dated 2016) one finds IC50 data, which are given here for 15 molecules.

What all share (assay): biochemical
Common to all, as to format: binding

Assay [1] has as its target DRB1*0404 (Homo sapiens, UniProt P01903+P01911, A100R/A169T/F76Y/I96L/K127E/L162R/M171V/N62H/P40V/Q125Y/R42H/S133A/S149N/S66Y/V209L/W38E). The settings on record: IC50 nM to purified HLA DRB1*0404.
In assay [2] the target is T1, DRB1*0301 (Homo sapiens, UniProt P01903+P01911, A100K/A102G/A103R/A169T/F55Y/I96L/K41T/L162R/M171V/P40S/Q125H/Q178H/Q39Y/R42S/S66N/T106N/T262R/W38E/Y61H).
T1 construct: made in house; host or cells: EBV-transformed homozygous human B cell lines, transfected fibroblasts or single-allele 721.221 transfectants
T1 sequence (P01903 26-254, other chains not shown): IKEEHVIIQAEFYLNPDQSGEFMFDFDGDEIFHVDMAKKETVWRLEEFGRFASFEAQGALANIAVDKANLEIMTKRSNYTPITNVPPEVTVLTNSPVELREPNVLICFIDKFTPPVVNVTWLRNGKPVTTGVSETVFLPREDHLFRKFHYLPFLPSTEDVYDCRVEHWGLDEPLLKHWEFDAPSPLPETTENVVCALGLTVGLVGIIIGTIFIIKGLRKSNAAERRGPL

Assay [3] has as its target DRB1*1302 (Homo sapiens, UniProt P01903+P01911, A100E/A169T/K41T/L162R/M171V/P40S/Q125H/Q178H/Q39Y/Q99D/R42S/S66N/T262R/V115G/W38E/Y61H). The note with it: read-out: IC50 nM to purified HLA DRB1*1302.
Assay [4] deals with T2, DRB1*0401 (Homo sapiens, UniProt P01903+P01911, A100K/A169T/F76Y/I96L/K127E/L162R/M171V/N62H/P40V/Q125Y/R42H/S133A/S149N/S66Y/V115G/V209L/W38E).
T2 construct: made in house; host or cells: EBV-transformed homozygous human B cell lines, transfected fibroblasts or single-allele 721.221 transfectants
The note with it: read-out: IC50 nM to purified HLA DRB1*0401.

The target in assay [5] is T3, DRB1*0101 (Homo sapiens, UniProt P01903+P01911, A100R/D57E/F55L/F60I/F76Y/I96L/L162R/M171V/P40L/Q125E/R42F/V115G/Y59C).
T3 construct: made in house; host or cells: EBV-transformed homozygous human B cell lines, transfected fibroblasts or single-allele 721.221 transfectants
The settings on record: IC50 nM to purified HLA DRB1*0101.

In assay [6] the target is T4, DRB1*1501 (Homo sapiens, UniProt P01903+P01911).
T4 construct: made in house; host or cells: EBV-transformed homozygous human B cell lines, transfected fibroblasts or single-allele 721.221 transfectants
The settings on record: read-out: IC50 nM to purified HLA DRB1*1501.

DRB1*1302, sequence (P01903 26-254 limits assumed, other chains not shown): as the sequence (P01903 26-254, other chains not shown) above

As to `CC[C@H](C)[C@H](NC(=O)[C@H](CC(N)=O)NC(=O)[C@H](Cc1ccc(O)cc1)NC(=O)[C@H](CC(C)C)NC(=O)[C@H](CC(N)=O)NC(=O)[C@@H]1CCCN1C(=O)CNC(=O)CNC(=O)[C@H](CC(=O)O)NC(=O)[C@H](CO)NC(=O)[C@@H](NC(=O)[C@H](CC(C)C)NC(=O)[C@H](CC(C)C)NC(=O)CNC(=O)[C@H](C)N)C(C)C)C(=O)O` [Flu.PB1.590], the half-maximal inhibitory concentration (IC50) (usually the concentration that gives 50% inhibition) in assay [1] stood at 3490 nM; in assay [2], 107 nM; in assay [3] it was 105 nM; in assay [4], 3000 nM; in assay [5], 8120 nM.
As to `CC(C)C[C@H](NC(=O)[C@H](CO)NC(=O)[C@H](CCCNC(=N)N)NC(=O)[C@H](CC(C)C)NC(=O)[C@H](CCC(=O)O)NC(=O)[C@@H]1CCCN1C(=O)[C@H](CCC(=O)O)NC(=O)[C@H](CC(=O)O)NC(=O)[C@H](CO)NC(=O)[C@H](CC(=O)O)NC(=O)[C@H](Cc1ccc(O)cc1)NC(=O)[C@H](CCC(N)=O)NC(=O)[C@H](CCCCN)NC(=O)[C@@H](N)CC(C)C)C(=O)N[C@@H](CO)C(=O)O` [Flu.PA.393], the IC50 in assay [1] came out at 5800 nM; in assay [2] it was 88 nM; in assay [4], 7260 nM; in assay [5] it was 17700 nM.
Take `CC[C@H](C)[C@H](NC(=O)[C@H](CCCNC(=N)N)NC(=O)[C@H](CCCNC(=N)N)NC(=O)[C@@H](NC(=O)[C@H](CCC(=O)O)NC(=O)[C@H](CCC(=O)O)NC(=O)[C@H](CCCCN)NC(=O)[C@H](CC(=O)O)NC(=O)[C@H](Cc1ccc(O)cc1)NC(=O)[C@H](CC(C)C)NC(=O)[C@@H](NC(=O)[C@H](CC(C)C)NC(=O)[C@H](CCC(=O)O)NC(=O)[C@@H](N)CCCNC(=N)N)[C@@H](C)CC)[C@@H](C)CC)C(=O)N[C@@H](Cc1c[nH]c2ccccc12)C(=O)O` [Flu.NP.109]: the concentration for half-maximal inhibition (IC50) was found to be 1800 nM in assay [1] and 59 nM in assay [2].
As to `CC[C@H](C)[C@H](NC(=O)[C@@H](NC(=O)[C@H](CC(C)C)NC(=O)[C@H](CO)NC(=O)[C@H](CCC(N)=O)NC(=O)[C@H](CC(=O)O)NC(=O)[C@@H](NC(=O)[C@H](CC(=O)O)NC(=O)[C@H](CC(=O)O)NC(=O)[C@H](CC(N)=O)NC(=O)[C@H](CCCNC(=N)N)NC(=O)[C@@H](NC(=O)[C@H](CCC(=O)O)NC(=O)CNC(=O)CN)C(C)C)C(C)C)[C@@H](C)CC)C(=O)O` [Flu.PB2.250], the concentration for half-maximal inhibition (IC50) in assay [1] stood at 458 nM; in assay [3], 2500 nM.
Consider `CC(C)C[C@H](NC(=O)[C@H](C)NC(=O)CNC(=O)[C@H](CCC(N)=O)NC(=O)[C@@H](N)[C@@H](C)O)C(=O)N[C@@H](CC(C)C)C(=O)N[C@@H](CC(N)=O)C(=O)N[C@@H](CC(=O)O)C(=O)N[C@@H](CCCCN)C(=O)N[C@@H](Cc1c[nH]cn1)C(=O)N[C@@H](CO)C(=O)N[C@@H](CC(N)=O)C(=O)NCC(=O)N[C@H](C(=O)N[C@H](C(=O)N[C@@H](CCCCN)C(=O)N[C@@H](CC(=O)O)C(=O)O)C(C)C)[C@@H](C)O` [Flu.NA.115], for which the IC50 in assay [2] amounted to 177 nM; in assay [6], 822 nM; in assay [3], 468 nM; in assay [4], 19000 nM.
On to `CC(C)C[C@H](NC(=O)[C@H](CCCCN)NC(=O)[C@H](CCCNC(=N)N)NC(=O)[C@H](CO)NC(=O)[C@H](CCC(=O)O)NC(=O)[C@H](C)NC(=O)[C@H](CO)NC(=O)[C@H](Cc1ccccc1)NC(=O)CNC(=O)[C@H](CCC(=O)O)NC(=O)[C@@H](N)CC(C)C)C(=O)N[C@@H](CC(C)C)C(=O)N[C@@H](CC(C)C)C(=O)N[C@H](C(=O)N[C@H](C(=O)O)C(C)C)C(C)C` [Flu.PA.658], for which the half-maximal inhibitory concentration (IC50) was 661 nM in assay [2], 2270 nM in assay [3], 861 nM in assay [4] and 12 nM in assay [5].
Consider `CC[C@H](C)[C@H](NC(=O)[C@H](CCSC)NC(=O)[C@H](CC(N)=O)NC(=O)[C@@H](N)CC(N)=O)C(=O)N[C@@H](CC(N)=O)C(=O)N[C@@H](CC(N)=O)C(=O)N[C@@H](CC(=O)O)C(=O)N[C@@H](CC(C)C)C(=O)NCC(=O)N1CCC[C@H]1C(=O)N[C@@H](C)C(=O)N[C@H](C(=O)N[C@@H](C)C(=O)N[C@@H](CCC(N)=O)C(=O)N[C@@H](CCSC)C(=O)O)[C@@H](C)O` [Flu.PB1.535], for which the IC50 is 1830 nM in assay [1], 527 nM in assay [2], 477 nM in assay [3] and 798 nM in assay [4].
The molecule `CC[C@H](C)[C@H](NC(=O)[C@H](C)NC(=O)[C@@H](N)CCC(N)=O)C(=O)N[C@@H](CCSC)C(=O)N[C@@H](CC(=O)O)C(=O)N[C@@H](CCCCN)C(=O)N[C@@H](CC(=O)O)C(=O)N[C@H](C(=O)N[C@H](C(=O)N[C@@H](CC(C)C)C(=O)N[C@@H](CCCCN)C(=O)N[C@@H](C)C(=O)N[C@@H](CC(N)=O)C(=O)N[C@@H](Cc1ccccc1)C(=O)N[C@@H](CO)C(=O)O)[C@@H](C)CC)[C@@H](C)CC` [Flu.NS1.124] had an IC50 in assay [1] of 310 nM.
Turning to `CC[C@H](C)[C@H](NC(=O)[C@H](CC(C)C)NC(=O)[C@@H](N)Cc1ccccc1)C(=O)N[C@@H](CC(C)C)C(=O)NCC(=O)N[C@@H](CCCCN)C(=O)N[C@@H](CCC(=O)O)C(=O)N[C@@H](CC(=O)O)C(=O)N[C@@H](CCCNC(=N)N)C(=O)N[C@@H](CCCNC(=N)N)C(=O)N[C@@H](Cc1ccc(O)cc1)C(=O)NCC(=O)N1CCC[C@H]1C(=O)N[C@@H](C)C(=O)N[C@@H](CC(C)C)C(=O)O` [Flu.PB2.697], the IC50 in assay [2] amounted to 565 nM; in assay [3], 118 nM; in assay [4], 1740 nM; in assay [5] it was 8390 nM.
For the molecule `CC[C@H](C)[C@H](NC(=O)[C@H](CCCNC(=N)N)NC(=O)[C@H](CCCCN)NC(=O)[C@H](CC(=O)O)NC(=O)[C@H](C)NC(=O)[C@@H](NC(=O)[C@@H](NC(=O)[C@@H]1CCCN1C(=O)[C@H](Cc1ccc(O)cc1)NC(=O)[C@@H](N)CCCCN)[C@@H](C)CC)[C@@H](C)O)C(=O)N[C@@H](CCSC)C(=O)N[C@@H](CCC(=O)O)C(=O)N[C@@H](CCSC)C(=O)N[C@H](C(=O)N1CCC[C@H]1C(=O)O)[C@@H](C)CC` [Flu.PB2.57], the half-inhibitory concentration (IC50) was 2290 nM in assay [1], 48 nM in assay [2], 68 nM in assay [3] and 9390 nM in assay [4].
Take `CC[C@H](C)[C@H](NC(=O)[C@H](CCCNC(=N)N)NC(=O)[C@H](CCC(=O)O)NC(=O)[C@@H](N)C(C)C)C(=O)N[C@@H](CC(C)C)C(=O)N[C@@H](CCCCN)C(=O)N[C@@H](CCC(=O)O)C(=O)N[C@@H](CCC(=O)O)C(=O)N[C@@H](CO)C(=O)N[C@@H](CC(=O)O)C(=O)N[C@@H](CCC(=O)O)C(=O)N[C@@H](C)C(=O)N[C@@H](CC(C)C)C(=O)N[C@@H](CCCCN)C(=O)N[C@@H](CCSC)C(=O)O` [Flu.NS1.68]: the 50% inhibitory concentration (IC50) in assay [2] turned out to be 1050 nM; in assay [3], 5060 nM; in assay [4], 679 nM; in assay [5] it was 5190 nM.
Regarding `CSCC[C@H](NC(=O)[C@H](CCCCN)NC(=O)[C@H](CO)NC(=O)[C@@H](N)C(C)C)C(=O)NCC(=O)N[C@H](C(=O)N[C@@H](CC(=O)O)C(=O)N[C@@H](CCC(=O)O)C(=O)N[C@@H](Cc1ccc(O)cc1)C(=O)N[C@@H](CO)C(=O)N[C@@H](CO)C(=O)N[C@H](C(=O)N[C@@H](CCC(=O)O)C(=O)N[C@@H](CCCNC(=N)N)C(=O)N[C@H](C(=O)O)C(C)C)[C@@H](C)O)C(C)C` [Flu.PB2.483], the IC50 amounted to 1020 nM in assay [2] and 1850 nM in assay [3].
On to `CSCC[C@H](NC(=O)[C@H](C)NC(=O)[C@H](CCCCN)NC(=O)[C@@H](N)CCC(N)=O)C(=O)N[C@@H](CCSC)C(=O)N[C@@H](CC(=O)O)C(=O)N[C@@H](CCC(N)=O)C(=O)N[C@H](C(=O)N[C@@H](CCCNC(=N)N)C(=O)N[C@@H](CCC(=O)O)C(=O)N[C@@H](CO)C(=O)N[C@@H](CCCNC(=N)N)C(=O)N[C@@H](CC(N)=O)C(=O)N1CCC[C@H]1C(=O)NCC(=O)O)C(C)C` [Flu.NP.238], for which the half-inhibitory concentration (IC50) came out at 1830 nM in assay [1] and 450 nM in assay [2].
For `CC[C@H](C)[C@H](NC(=O)[C@H](CO)NC(=O)[C@H](CCC(=O)O)NC(=O)CN)C(=O)N[C@H](C(=O)N[C@H](C(=O)N[C@@H](CCC(=O)O)C(=O)N[C@@H](CC(C)C)C(=O)N[C@@H](CC(=O)O)C(=O)N[C@@H](CC(=O)O)C(=O)N1CCC[C@H]1C(=O)N[C@@H](CC(N)=O)C(=O)N[C@@H](C)C(=O)N[C@@H](CC(C)C)C(=O)N[C@@H](CC(C)C)C(=O)O)C(C)C)[C@@H](C)CC` [Flu.PA.61], the figures for the IC50 in assay [1] and in assay [3] were 80 nM and 59 nM, respectively.
Take `CC[C@H](C)[C@H](NC(=O)[C@H](CCC(=O)O)NC(=O)[C@H](CC(=O)O)NC(=O)[C@H](CC(C)C)NC(=O)[C@H](CCC(=O)O)NC(=O)[C@@H](NC(=O)[C@H](Cc1c[nH]c2ccccc12)NC(=O)[C@@H](NC(=O)[C@@H](N)CO)[C@@H](C)CC)[C@@H](C)CC)C(=O)NCC(=O)N[C@@H](CCC(=O)O)C(=O)N[C@@H](CC(=O)O)C(=O)N[C@H](C(=O)N[C@@H](C)C(=O)N1CCC[C@H]1C(=O)O)C(C)C` [Flu.PA.423]: the 50% inhibitory concentration (IC50) in assay [1] worked out at 7610 nM; in assay [2], 59 nM; in assay [4], 5400 nM; in assay [5] it was 13400 nM.
